The results in this text go back to PubChem BioAssay AID1259407 (Chemical Carcinogenesis Research Information System (CCRIS), 2018).

The source made the active and inactive calls. How the calls were made is not given here.

The subject of the data set is CCRIS mutagenicity, Ames/micronucleus/aberration tests. As to the kind of experiment: CCRIS mutagenicity studies.
Setting [1] is: Test System: AMES SALMONELLA TYPHIMURIUM, Strain/Indicator: TA98, Metabolic Activation: NONE, Method: STANDARD PLATE.
[2] abbreviates: Test System: AMES SALMONELLA TYPHIMURIUM, Strain/Indicator: TA100, Metabolic Activation: NONE, Method: STANDARD PLATE.

Turning to `Nc1ccc(Cc2ccc(N)cc2)cc1`, the mutagenic call runs as follows: (End Point: IN VIVO MICRONUCLEUS, Test System: PERIPHERAL BLOOD RETICULOCYTES, Species: RAT, Strain/Sex: FISHER 344 OR SD/MALE, Route: ORAL OR IP) “inactive; negative”; (Test System: AMES SALMONELLA TYPHIMURIUM, Strain/Indicator: TA97, Metabolic Activation: HAMSTER, LIVER, S-9, AROCLOR 1254 (10%), Method: PREINCUBATION) “active; positive”; (Test System: AMES SALMONELLA TYPHIMURIUM, Strain/Indicator: TA97, Metabolic Activation: NONE, Method: PREINCUBATION) “inactive; negative”; (Test System: AMES SALMONELLA TYPHIMURIUM, Strain/Indicator: TA98, Metabolic Activation: HAMSTER, LIVER, S-9, AROCLOR 1254 (10%), Method: PREINCUBATION) “active; positive”; (Test System: AMES SALMONELLA TYPHIMURIUM, Strain/Indicator: TA98, Metabolic Activation: NONE, Method: PREINCUBATION) “inactive; negative”; under setting [1], “inactive; negative”. In addition, the mutagenic call (Test System: AMES SALMONELLA TYPHIMURIUM, Strain/Indicator: TA98, Metabolic Activation: RAT, LIVER, S-9, AROCLOR 1254, Method: STANDARD PLATE) was “active; positive”; the mutagenic call (Test System: AMES SALMONELLA TYPHIMURIUM, Strain/Indicator: TA98, Metabolic Activation: RAT, LIVER, S-9, PCB, Method: PREINCUBATION) was “active; positive”; the mutagenic call (Test System: AMES SALMONELLA TYPHIMURIUM, Strain/Indicator: TA98, Metabolic Activation: RAT, LIVER, S-9, PCB, Method: STANDARD PLATE) is “active; positive”; the mutagenic call (Test System: AMES SALMONELLA TYPHIMURIUM, Strain/Indicator: TA98, Metabolic Activation: RAT, LIVER, S-9, PHENOBARBITAL, Method: PREINCUBATION) was “inactive; negative”; the mutagenic call (Test System: AMES SALMONELLA TYPHIMURIUM, Strain/Indicator: TA100, Metabolic Activation: HAMSTER, LIVER, S-9, AROCLOR 1254 (10%), Method: PREINCUBATION) is “active; positive”; the mutagenic call (Test System: AMES SALMONELLA TYPHIMURIUM, Strain/Indicator: TA100, Metabolic Activation: NONE, Method: PREINCUBATION) is “inactive; negative”. In addition, the mutagenic call was “inactive; negative” under setting [2]; “active; positive” (Test System: AMES SALMONELLA TYPHIMURIUM, Strain/Indicator: TA100, Metabolic Activation: RAT, LIVER, S-9, AROCLOR 1254 (10%), Method: PREINCUBATION); “active; positive” (Test System: AMES SALMONELLA TYPHIMURIUM, Strain/Indicator: TA100, Metabolic Activation: RAT, LIVER, S-9, AROCLOR 1254, Method: STANDARD PLATE); “active; positive” (Test System: AMES SALMONELLA TYPHIMURIUM, Strain/Indicator: TA100, Metabolic Activation: RAT, LIVER, S-9, PCB, Method: PREINCUBATION); “active; positive” (Test System: AMES SALMONELLA TYPHIMURIUM, Strain/Indicator: TA100, Metabolic Activation: RAT, LIVER, S-9, PCB, Method: STANDARD PLATE); “active; positive” (Test System: AMES SALMONELLA TYPHIMURIUM, Strain/Indicator: TA100, Metabolic Activation: RAT, LIVER, S-9, PHENOBARBITAL, Method: PREINCUBATION). Besides, the mutagenic call by setting is: (Test System: AMES SALMONELLA TYPHIMURIUM, Strain/Indicator: TA1535, Metabolic Activation: HAMSTER, LIVER, S-9, AROCLOR 1254 (5 OR 30%), Method: PREINCUBATION) “active; positive”; (Test System: AMES SALMONELLA TYPHIMURIUM, Strain/Indicator: TA1535, Metabolic Activation: HAMSTER, LIVER, S-9, AROCLOR 1254 (10%), Method: PREINCUBATION) “active; positive”; (Test System: AMES SALMONELLA TYPHIMURIUM, Strain/Indicator: TA1535, Metabolic Activation: NONE, Method: PREINCUBATION) “inactive; negative”; (Test System: AMES SALMONELLA TYPHIMURIUM, Strain/Indicator: TA1535, Metabolic Activation: RAT, LIVER, S-9, AROCLOR 1254 (10%), Method: PREINCUBATION) “inactive; negative”; (Test System: E. COLI, Strain/Indicator: WP2 UVRA, Metabolic Activation: HAMSTER, LIVER, S-9, AROCLOR 1254, Method: STANDARD PLATE) “inactive; negative”; (Test System: E. COLI, Strain/Indicator: WP2 UVRA, Metabolic Activation: HAMSTER, LIVER, S-9, Method: STANDARD PLATE) “inactive; negative”. Also, the mutagenic call (Test System: E. COLI, Strain/Indicator: WP2 UVRA, Metabolic Activation: MOUSE, LIVER, S-9, AROCLOR 1254, Method: STANDARD PLATE) was “inactive; negative”; the mutagenic call (Test System: E. COLI, Strain/Indicator: WP2 UVRA, Metabolic Activation: MOUSE, LIVER, S-9, Method: STANDARD PLATE) is “inactive; negative”; the mutagenic call (Test System: E. COLI, Strain/Indicator: WP2 UVRA, Metabolic Activation: NONE, Method: STANDARD PLATE) is “inactive; negative”; the mutagenic call (Test System: E. COLI, Strain/Indicator: WP2 UVRA, Metabolic Activation: RAT, LIVER, S-9, AROCLOR 1254, Method: STANDARD PLATE) is “inactive; negative”; the mutagenic call (Test System: E. COLI, Strain/Indicator: WP2 UVRA, Metabolic Activation: RAT, LIVER, S-9, Method: STANDARD PLATE) is “inactive; negative”; the mutagenic call (Test System: UDS RAT HEPATOCYTES, Strain/Indicator: BROMODEOXYURIDINE INCORP, Metabolic Activation: NONE, Method: FLOW CYTOMETRIC ANALYSIS) was “inactive; negative”. In addition, where the note is “Test System: UDS RAT HEPATOCYTES, Strain/Indicator: THY INCORP, Metabolic Activation: NONE, Method: AUTORADIOGRAPHY”, the mutagenic call is “inactive; negative”.
For `Nc1nc2c(ccc3ncccc32)s1`, the mutagenic call (Test System: AMES SALMONELLA TYPHIMURIUM, Strain/Indicator: TA1538, Metabolic Activation: RAT, LIVER, S-9, AROCLOR 1254, Method: STANDARD PLATE) is “active; positive”.
In the case of `O=C(O)c1ccc(NC2OCC(O)C(O)C2O)cc1` (stereo not drawn), the mutagenic call (Test System: AMES SALMONELLA TYPHIMURIUM, Strain/Indicator: TA100, Metabolic Activation: NONE, Method: LIQUID INCUBATION) was “inactive; negative”.
Consider `CC(C)CCCC(C)CCCC(C)CCCCC(C)CCCC(C)CCCC(C)C` (stereo not drawn), for which the mutagenic call reads like this: (Test System: Ames Salmonella typhimurium, Strain/Indicator: TA98, Metabolic Activation: None, Method: Preincubation) “inactive; negative”; (Test System: Ames Salmonella typhimurium, Strain/Indicator: TA98, Metabolic Activation: Rat, Liver, S9, Phenobarbital and 5,6-benzoflavone, Method: Preincubation) “inactive; negative”; (Test System: Ames Salmonella typhimurium, Strain/Indicator: TA100, Metabolic Activation: None, Method: Preincubation) “inactive; negative”; (Test System: Ames Salmonella typhimurium, Strain/Indicator: TA100, Metabolic Activation: Rat, Liver, S9, Phenobarbital and 5,6-benzoflavone, Method: Preincubation) “inactive; negative”; (Test System: Ames Salmonella typhimurium, Strain/Indicator: TA1535, Metabolic Activation: None, Method: Preincubation) “inactive; negative”; (Test System: Ames Salmonella typhimurium, Strain/Indicator: TA1535, Metabolic Activation: Rat, Liver, S9, Phenobarbital and 5,6-benzoflavone, Method: Preincubation) “inactive; negative”. In addition, the mutagenic call by setting is: (Test System: Ames Salmonella typhimurium, Strain/Indicator: TA1537, Metabolic Activation: None, Method: Preincubation) “inactive; negative”; (Test System: Ames Salmonella typhimurium, Strain/Indicator: TA1537, Metabolic Activation: Rat, Liver, S9, Phenobarbital and 5,6-benzoflavone, Method: Preincubation) “inactive; negative”; (Test System: E. coli, Strain/Indicator: WP2uvrA/pKM101, Metabolic Activation: None, Method: Preincubation) “inactive; negative”; (Test System: E. coli, Strain/Indicator: WP2uvrA/pKM101, Metabolic Activation: Rat, Liver, S9, Phenobarbital and 5,6-benzoflavone, Method: Preincubation) “inactive; negative”.
Turning to `C[C@@H](C(=O)O)N(N=[N+]=[N-])C(=O)OC(C)(C)C`, the mutagenic call under setting [2] is “active; positive”.
In the case of `COc1cccc(C=O)c1`, the mutagenic call (Test System: MOUSE LYMPHOMA, Strain/Indicator: L5178Y (TK+/TK-), Metabolic Activation: NONE, Method: SUSPENSION/PLATE) is “inactive; negative”.
For `O=C(Nc1cccc([N+](=O)[O-])c1)c1csc([N+](=O)[O-])c1`, the mutagenic call under setting [1] was “active; positive” and the mutagenic call under setting [2] is “active; positive”.
On to `O=[N+]([O-])c1cc([N+](=O)[O-])c2c3ccccc3c3cccc4ccc1c2c43`, for which the mutagenic call under setting [1] is “active; positive”.
